Publication PMC9127185, “A Pyridazinone Compound for Effectively Treating Non-alcoholic Steatohepatitis by Targeting THRβ” (Frontiers in Chemistry, 2022)
“Also recorded” adds a separate entry of the source.

Legend:
[1] = Tissue distribution study after oral administration; assay type: in vivo, C57BL/6J mice; settings: for Time of highest tissue level: oral
Protocol: The frozen mice plasma samples and tissue homogenates were thawed at room temperature, vortexed for 1 min, then taken out in 10-μl aliquots in a 1.50-ml centrifuge tube, and this was then mixed with 1 μl of standard solution and 50 μl of internal standard (IS) solution, which was then dissolved and diluted with acetonitrile. Subsequently, it was vortexed for 3 min and at 14,000 rpm centrifugation for 5 min. The adopted 1 μl of the supernatant was used for sample injection analysis.
A total of 24 male C57/BL6J mice were divided into 4 groups at random, with 6 mice in a group for tissue distribution at 0.25, 1, 6, and 24 h. They were given YWS01125 after oral administration of 20 mg/kg, and then sacrificed at 0.25, 1, 6, and 24 h. Tissues from the heart, liver, spleen, lungs, kidneys, stomach, small intestine, colon, fat, muscle, testes, and brain were taken and rinsed with saline solution to remove the blood and connective tissues ([Geng et al., 2015]; [He et al., 2017]; [Jiang et al., 2017]), then put on the filter paper and weighed, quickly. Each tissue sample was homogenized by using five times of the tissue weight saline (w/v). All homogenates were stored at−80 °C until analysis.
The tissue distributions of YWS01125 were investigated in C57BL/6J mice at 0.25, 1, 6, and 24 h after oral administration. The examined organs or tissues included the heart, liver, spleen, lungs, kidneys, stomach, small intestine, colon, fat, muscle, testes, and brain. The linear ranges, correlation coefficients, weight factors, and regression equations for all analytes in the mouse plasma and tissue homogenates are shown in Table 5. The concentration of each tissue at 0.25 h is indicated as stomach > kidneys > liver > colon > small intestine > testes > heart > spleen > lungs > fat; concentration of each tissue at 1 h is small intestine > colon > liver > stomach > kidneys > lungs > heart > fat > testes; concentration of each tissue at 6 h is small intestine > colon > stomach > liver > kidneys > heart; and concentration of each tissue at 24 h is that the whole tissues were not detected (Table 6). […] The content of the compound in the stomach was much higher than that in any other organ. The highest levels were reached 0.25 h after oral administration, then decreased thereafter. For the heart, liver, kidneys, lungs, small intestine, colon, and fat, the highest level was reached 1 h after oral administration, and it reached the highest levels at 0.25 h in the spleen, stomach, and testes.

[2] = Stability of liver microsomes study (mouse); assay type: in vitro ADME; settings: mouse liver microsomes 0.50 mg/ml, NADPH-generating system, 37°C, 0-90 min
Protocol: Hypersil GOLD C18 column (4.6 × 150 mm, 5 μm, Thermo). A 0.025% ammonia aqueous solution in water (solvent A) and acetonitrile (solvent B) were used as mobile phases with gradient elution. The gradient was as follows: 0.01 min, 15% B; 5 min, 20% B; 12 min, 80% B; 16 min, 80% B; 16.01 min, 15% B; 19 min, 15% B; and 19.01 min, stopped. The timing interval was 19 min, and the flow rate was set at 1 ml/min.
The incubation system was carried out in 0.05 M Tris/KCl buffer (PH = 7.4) and included the following: pyrazinone compounds dissolved with dimethyl sulfoxide (DMSO), mouse liver microsomes and human liver microsomes at 0.50 mg/ml, 1.30 mM nicotinamide adenine dinucleotide sodium phosphate (NADP), 3.30 mM glucose-6-phosphate disodium salt (G-6-P), 0.40 units/mL glucose-6-phosphate dehydrogenase (G-6-PDH), and 3.30 mM magnesium chloride. […] After preincubation for 3 min in an 850-rpm blender (37°C), liver microsomes were added to initiate the incubation reaction (37°C). The incubation time was 0, 30, 60, and 90 min. After incubation, an equal volume of cold acetonitrile was added to stop the reaction, and an internal standard (0.05 mg/ml acetaminophen solution) was added. The samples were centrifuged at 10,000 rpm for 10 min to precipitate proteins ([Day et al., 2017]; [Manne et al., 2018]), and the 10 µL of the supernatant was taken for HPLC analysis.

[3] = Stability of liver microsomes study (human); assay type: in vitro ADME; settings: human liver microsomes 0.50 mg/ml, NADPH-generating system, 37°C, 0-90 min
[4] = target: T1, THRβ (Homo sapiens, UniProt P10828); assay: Selectivity and activity for THRβ; settings: in words, no data shown
T1 sequence (P10828 1-461): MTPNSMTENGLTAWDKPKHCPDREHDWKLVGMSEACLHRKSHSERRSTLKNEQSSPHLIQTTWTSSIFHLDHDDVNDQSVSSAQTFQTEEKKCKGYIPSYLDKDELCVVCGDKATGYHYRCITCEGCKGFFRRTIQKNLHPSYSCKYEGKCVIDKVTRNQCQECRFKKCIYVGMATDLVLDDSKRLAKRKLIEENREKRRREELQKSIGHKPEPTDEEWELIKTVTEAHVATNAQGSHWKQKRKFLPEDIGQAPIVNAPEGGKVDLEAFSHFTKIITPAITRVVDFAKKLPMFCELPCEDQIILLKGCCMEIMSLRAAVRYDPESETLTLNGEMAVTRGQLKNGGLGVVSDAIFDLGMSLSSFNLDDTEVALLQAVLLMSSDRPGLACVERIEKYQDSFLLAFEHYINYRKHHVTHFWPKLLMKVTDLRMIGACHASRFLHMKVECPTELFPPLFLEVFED

[5] = Cytotoxicity; assay type: cell-based; settings: in words, no data shown
[6] = tested on: acute liver injury model; assay: Acute liver injury model; assay type: in vivo, rat; settings: in words, no data shown
[7] = tested on: acute hyperlipidemia mice; assay: Acute hyperlipidemia mice; assay type: in vivo; settings: in words, no data shown
[8] = tested on: NASH; assay: NASH pharmacodynamic study; assay type: in vivo; settings: in words, no data shown
[9] = after oral administration, all time points

N#Cc1cn(-c2cc(Cl)c(Oc3cc(C4CCC4)c(=O)[nH]n3)c(Cl)c2)c(=O)[nH]c1=O [YWS01125, 1-(3,5-dichloro-4-((5-cyclobutyl-6-oxo-1,6-dihydropyridazin-3-yl)oxy)phenyl)-2,4-dioxo-1,2,3,4-tetrahydropyrimidine-5-carbonitrile]
Concentration in the brain [1, 9]: not detected
Concentration in the muscle [1, 9]: not detected
Time of highest tissue level ([1]; heart, liver, kidneys, lungs, small intestine, colon, fat): 1 h
Colon tissue concentration ([1]; oral 20 mg/kg, 15 min): 46.70 ± 2.27
Fat tissue concentration ([1]; oral 20 mg/kg, 15 min): 9.37 ± 0.88
Heart tissue concentration ([1]; oral 20 mg/kg, 15 min): 7.00 ± 1.05
Kidneys tissue concentration ([1]; oral 20 mg/kg, 15 min): 129.83 ± 18.31
Liver tissue concentration ([1]; oral 20 mg/kg, 15 min): 69.93 ± 11.25
Lungs tissue concentration ([1]; oral 20 mg/kg, 15 min): 5.51 ± 1.22
Small intestine tissue concentration ([1]; oral 20 mg/kg, 15 min): 31.30 ± 6.38
Spleen tissue concentration ([1]; oral 20 mg/kg, 15 min): 6.26 ± 0.60
Stomach tissue concentration ([1]; oral 20 mg/kg, 15 min): 378.67 ± 36.89
Testes tissue concentration ([1]; oral 20 mg/kg, 15 min): 15.37 ± 2.15
Colon tissue concentration ([1]; oral 20 mg/kg, 1 h): 357.67 ± 35.31
Fat tissue concentration ([1]; oral 20 mg/kg, 1 h): 8.69 ± 1.45
Heart tissue concentration ([1]; oral 20 mg/kg, 1 h): 14.41 ± 5.97
Kidneys tissue concentration ([1]; oral 20 mg/kg, 1 h): 230.50 ± 15.53
Liver tissue concentration ([1]; oral 20 mg/kg, 1 h): 283.67 ± 40.72
Lungs tissue concentration ([1]; oral 20 mg/kg, 1 h): 60.76 ± 4.97
Small intestine tissue concentration ([1]; oral 20 mg/kg, 1 h): 373.00 ± 33.88
Stomach tissue concentration ([1]; oral 20 mg/kg, 1 h): 247.17 ± 24.96
Testes tissue concentration ([1]; oral 20 mg/kg, 1 h): 6.08 ± 4.70
Colon tissue concentration ([1]; oral 20 mg/kg, 6 h): 60.23 ± 3.87
Heart tissue concentration ([1]; oral 20 mg/kg, 6 h): 4.01 ± 1.27
Kidneys tissue concentration ([1]; oral 20 mg/kg, 6 h): 12.73 ± 1.65
Liver tissue concentration ([1]; oral 20 mg/kg, 6 h): 16.63 ± 1.72
Small intestine tissue concentration ([1]; oral 20 mg/kg, 6 h): 61.03 ± 4.06
Stomach tissue concentration ([1]; oral 20 mg/kg, 6 h): 54.49 ± 10.20
Time of highest tissue level ([1]; spleen, stomach, testes): 0.25 h
Metabolic stability / metabolite formation in liver microsomes [2]: no metabolites; also recorded: stable
Metabolic stability / metabolite formation in liver microsomes [3]: no metabolites; also recorded: stable
Selectivity and activity for THRβ [4]: excellent activity; also recorded: best selectivity and activity
Cytotoxicity [5]: low cytotoxicity
Effect in acute liver injury model [6]: hepatoprotective effect
Effect on acute hyperlipidemia mice [7]: lipid-lowering function
Effect on NASH [8]: alleviation of NASH
